Results taken from US20080096971A1, “Treatment of Inflammatory Disorders and Pain” (priority 2004, published 2008).
“Also recorded” adds a separate entry of the source.

Experiments:
[1] = system: Guinea-pig trachea ring preparations (beta2 agonism); test: Beta2 Agonism Functional Assay (carbachol-contracted trachea rings); type: cell-based; details: for beta2 agonist activity (in words): guinea-pig trachea, formoterol positive control
Method: Beta2 Agonism Functional Assay
Guinea-pig trachea ring preparations were suspended in Kreb's solution containing indomethacin. After 15 minutes stabilisation, the preparations were repeated contracted using carbachol and simultaneously treated with increasing cumulative doses test compounds (0.1 nM to 0.1 μM). Beta2 agonism for each test compound was determined by its dose-dependant inhibition of carbachol-stimulated tracheal muscle twitch.

[2] = system: Serum TNFα and IL-10 levels; test: LPS Mouse Assay; type: in vivo, Balb C ByJ mice; details: LPS 1 mg/kg i.p., serum 2 hours after challenge, 0.3 and 1 mg/kg p.o. for (S)-clenbuterol
Method: 7 week old Balb C ByJ mice (24-28 g) were administered, either by i.p. (5 ml/kg) or oral (10 ml/kg) administration, with vehicle or test article. 30 minutes later these animals were challenged with an intraperitoneal injection of 1 mg/kg LPS. 2 hours after LPS challenge blood samples were collected under light isoflurane anaesthesia into normal tubes by retro-orbital puncture. Samples were allowed to clot at room temperature and then spun at 6000 g for 3 min at 4° C. Serum was stored at −20° C. until use. Serum TNFα and IL-10 levels were analysed in duplicate by ELISA technique.

[3] = system: male Wistar rats (carrageenan-injected right hind paw); test: Carrageenan Paw Assay; type: in vivo; details: doses of 0.3, 1 and 3 mg/kg oral; 1-5 hours after carrageenan
Method: Fasted (18 hour) male Wistar rats (105-130 g) were weighed and a basal mercury plethysmometer reading was taken of the right hind paw by submerging the paw in the mercury up to the tibiotarsal joint. Subsequently, vehicles, reference items and test articles were administered by oral gavage (10 ml/kg). Half an hour after treatment 0.1 ml of 2% carrageenan in 0.9% saline was injected into the subplanatar area of the right hind paw. The right paw was measured again with the plethysmometer at 1, 2, 3, 4 and 5 hours after carrageenan administration.

[4] = system: Male Wistar rats (Freund's adjuvant); test: Rat Adjuvant Assay; type: in vivo; details: oral once a day from day 11; (S)-clenbuterol at 0.3, 1 and 3 mg/kg/day
Method: Male Wistar rats (180 to 200 g) were inoculated by subplantar injection of Freund's adjuvant (suspension of Mycobacterium butyricum in mineral oil) into the right paw at day 0. Sham inoculations were injected in the same way with 0.9% saline in matched Male Wistar rats. On day 2 animals were weighed. On days 3, 4, 7, 9 and 11 animals were weighed and both their right and left hind paws were measure by plethsymometry by submerging the paw up to the tibiotarsal joint. On day 11, rats with left hind paw volumes increased by 20% were selected for continuance in the study. On the same day continuance rats were administered test article orally (10 ml/kg in distilled water) and from then on once a day until the completion of the study. Left and right hind paw volumes were measured on days 11, 14, 15, 16, 18 and 21.

[5] = system: male DBA1 mice (collagen II induced arthritis); test: Collagen II-Induced Arthritis Assay; type: in vivo; details: doses of 0.3, 1 and 3 mg/kg, from day 21
Method: Collagen II-Induced Arthritis Assay
6 to 8 week old male DBA1 mice were immunised with 0.1 ml intradermal (tail) injection of bovine type II collagen emulsified in Freund's complete adjuvant (day 0). At day 21 a booster collagen (intraperitoneal) inoculation was given, in PBS. Simultaneously, administration of test compound was given by the predetermined route of administration and delivery frequency. In addition, day 21 commenced observation of clinical signs, body weights and arthritis reaction scores. Arthritis score was assessed by the summation of all four paws scored for signs of arthritis development.

| Compound | beta2 agonist activity (in words) [1] | beta2 agonist activity (in words) ([1]; listed as (R)-clenbuterol) | immunomodulatory activity (serum TNFα and IL-10 after LPS) [2] | inhibition of carbachol-stimulated tracheal muscle twitch ([1]; from −10 to −7 log M, cumulative doses) | immunomodulatory activity (serum TNFα and IL-10 after LPS) ([2]; listed as (S)-clenbuterol) | anti-inflammatory activity (paw volume) [3] | anti-inflammatory effect (hind paw volume) [4] | anti-inflammatory effect (arthritis score) [5] |
| --- | --- | --- | --- | --- | --- | --- | --- | --- |
| CC(C)(C)NC[C@H](O)c1cc(Cl)c(N)c(Cl)c1 [(R)-Clenbuterol] | little such beta2 agonist activity | distinct beta2 agonism | significant activity |  |  |  |  |  |
| CC(C)(C)NC[C@@H](O)c1cc(Cl)c(N)c(Cl)c1 [(S)-Clenbuterol, (S)-(+)-clenbuterol] | a little lower than that caused by formoterol |  | significant activity | up to 75% | profound immunomodulatory profile; also recorded: less than (R)-clenbuterol | strong and dose-dependent anti-inflammatory activity | clear but non-dose-related anti-inflammatory effect | clear but inverse dose-related anti-inflammatory effect |
